Source: patent US20230416329A1, “A PEPTIDE WITH DISULFIDE BONDS AND INHIBITORY ACTIVITY AGAINST SERINE PROTEASES, DERIVED HYBRID PEPTIDES THEREOF, AND USES THEREOF” (INSTITUTE OF MATERIA MEDICA , CHINESE ACADEMY OF MEDICAL …, priority 2020, published 2023)
Bridge positions count the residues as written; N and C are the ends. Ends that are not written are not given here. PEG = not defined here

Key:
normal ICR mice [1] = experiment: In vivo hypoglycemic activity of GLP-1 analogues, subcutaneous administration, oral glucose loading; design: species or system mouse; details: normal ICR mice, 1 μmol/kg s.c., glucose 2 g/kg by gavage
Procedure: FIG. 21. In vivo hypoglycemic activities of GLP-1 analogues by subcutaneous administration. Normal ICR mice were subcutaneously injected with GLP-1 and its analogues or corresponding volumes of saline (1.0 μmol/kg, n=10). After 30 min, glucose solution (2 g/kg) was administered by gavage, and blood was collected from the tail tip at 30, 60, and 120 min after glucose administration. Blood glucose was measured using glucose oxidase method, and blood glucose values and area under the blood glucose curve (AUC) were calculated at each timepoint.
The day before the experiment, all of the animals were fasted for 15-16 hours with water ad libitum. On the day of the experiment, the animals were randomly divided according to body weight (n=10). Firstly, the blood was collected from the tail tip at 0 hour, and then the animals were administered subcutaneously with GLP-1 analog (SEQ ID NOs: 194-201, 1 μmol/kg) or saline. After 30 minutes, the animals were administered by gavage with glucose solution (2 g/kg), and the blood was collected from the tail tip at 30, 60, and 120 minutes later. Blood glucose was measured using glucose oxidase method. The blood glucose and area under the blood glucose-time curve (AUC) were calculated.

normal ICR mice [2] = experiment: In vivo hypoglycemic activity of GLP-1 analogues, duodenal administration, oral glucose loading; design: species or system mouse; details: normal ICR mice, 10 μmol/kg duodenal, glucose 2 g/kg by gavage
Procedure: FIG. 22. In vivo hypoglycemic activities of GLP-1 analogues by duodenal administration. Normal ICR mice were anesthetized with inhalation of ether, and the duodenum was surgically removed and injected with GLP-1 and its analogues or a corresponding volume of saline ([…], n=9-11), and finally the incision was sewed. After 15 min, glucose solution (2 g/kg) was administered by gavage, and blood was collected from the tail tips at 15, 30, and 60 min after glucose administration. Blood glucose was measured using glucose oxidase method, and blood glucose values and area under the blood glucose curve (AUC) were calculated at each timepoint.
Drug delivery technology can use enteric coating technology to achieve oral administration targeting the small intestine. In order to test the feasibility of direct small intestinal administration of GLP-1, the present invention designs duodenal administration. The experimental process is as follows: The day before the experiment, all of the animals were fasted for 15-16 hours with water ad libitum. On the day of the experiment, the animals were randomly divided according to body weight (n=9-11 or 14-15 for combined administration). Firstly, the blood was collected from the tail tip at 0 hours, and then the animals were anesthetized by inhaling ether. A small incision was made near the underside of the stomach using surgical scissors, and the duodenum was carefully removed and administered with GLP-1 analogs (SEQ ID NOs: 194-209, 10 μmol/kg) or saline. Finally, the wound was sutured. After 15 minutes, the glucose solution (2 g/kg) was administered by gavage, and the blood were collected from the tail tips at 15, 30, and 60 minutes after glucose administration. Blood glucose was measured using the glucose oxidase method. The blood glucose at each moment and area under the blood glucose-time curve (AUC) were calculated.
AUC mg×h/dL)=(BG0+BG15)×15/60+(BG15+BG30)×15/60+(BG30+BG60)×30/60. BG0, BG15, BG30, and BG60 represent blood glucose levels at 0, 15, 30, and 60 minutes after glucose loading, respectively.

Substance	hypoglycemic activity, subcutaneous injection (in words) (normal ICR mice [1])	hypoglycemic activity, duodenal administration (in words) (normal ICR mice [2])
Ac-Gly-Arg-Cys-Thr-Lys-Ser-Ile-Pro-Pro-Ile-Cys-Phe-Pro-Gly-Gly-Ile-Pro-Ile-Gly-Gly-His-Ala-Glu-Gly-Thr-Phe-Thr-Ser-Asp-Val-Ser-Ser-Tyr-Leu-Glu-Gly-Gln-Ala-Ala-Lys-Glu-Phe-Ile-Ala-Trp-Leu-Val-Lys-Gly-Arg-Gly-Gly-Lys-NH2 (Ac-GRCTKSIPPICFPGGIPIGGHAEGTFTSDVSSYLEGQAAKEFIAWLVKGRGGK-NH2; disulfide 3-11 (inferred)) [Acetylated and Amidated SEQ ID NO: 194]	did not show any significant differences in their hypoglycemic activity compared to the unmodified molecules	–
Ac-Gly-Ile-Pro-Ile-Gly-Gly-His-Ala-Glu-Gly-Thr-Phe-Thr-Ser-Asp-Val-Ser-Ser-Tyr-Leu-Glu-Gly-Gln-Ala-Ala-Lys-Glu-Phe-Ile-Ala-Trp-Leu-Val-Lys-Gly-Arg-Gly-Gly-Lys-Gly-Arg-Cys-Thr-Lys-Ser-Ile-Pro-Pro-Ile-Cys-Phe-Pro-NH2 (Ac-GIPIGGHAEGTFTSDVSSYLEGQAAKEFIAWLVKGRGGKGRCTKSIPPICFP-NH2; disulfide 42-50 (inferred)) [Acetylated and Amidated SEQ ID NO: 196]	did not show any significant differences in their hypoglycemic activity compared to the unmodified molecules	–
Ac-Gly-Ile-Pro-Ile-Gly-Gly-His-Ala-Glu-Gly-Thr-Phe-Thr-Ser-Asp-Val-Ser-Ser-Tyr-Leu-Glu-Gly-Gln-Ala-Ala-Lys-Glu-Phe-Ile-Ala-Trp-Leu-Val-Lys-Gly-Arg-Gly-Gly-Lys-Gly-Cys-Gly-Arg-Ala-Thr-Lys-Ser-Ile-Pro-Pro-Ile-Cys-Phe-NH2 (Ac-GIPIGGHAEGTFTSDVSSYLEGQAAKEFIAWLVKGRGGKGCGRATKSIPPICF-NH2; disulfide 41-52 (inferred)) [Acetylated and Amidated SEQ ID NO: 200]	did not show any significant differences in their hypoglycemic activity compared to the unmodified molecules	–
Cys-Gly-Arg-Ala-Thr-Lys-Ser-Ile-Pro-Pro-Ile-Cys-Phe-Gly-Gly-Gln-Arg-Phe-Ser-Arg-Gly-Gly-His-Ala-Glu-Gly-Thr-Phe-Thr-Ser-Asp-Val-Ser-Ser-Tyr-Leu-Glu-Gly-Gln-Ala-Ala-Lys-Glu-Phe-Ile-Ala-Trp-Leu-Val-Lys-Gly-Arg-Gly-Gly-Lys (CGRATKSIPPICFGGQRFSRGGHAEGTFTSDVSSYLEGQAAKEFIAWLVKGRGGK; Synthetic construct BT9-N-GLP-1) [SEQ ID NO: 199]	significantly reduced the blood glucose levels at 30 and 60 minutes after oral glucose loading and the AUC	did not influence the blood glucose levels
Gly-Arg-Cys-Thr-Lys-Ser-Ile-Pro-Pro-Ile-Cys-Phe-Pro-Gly-Gly-Gln-Arg-Phe-Ser-Arg-Gly-Gly-His-Ala-Glu-Gly-Thr-Phe-Thr-Ser-Asp-Val-Ser-Ser-Tyr-Leu-Glu-Gly-Gln-Ala-Ala-Lys-Glu-Phe-Ile-Ala-Trp-Leu-Val-Lys-Gly-Arg-Gly-Gly-Lys (GRCTKSIPPICFPGGQRFSRGGHAEGTFTSDVSSYLEGQAAKEFIAWLVKGRGGK; Synthetic construct BT1-N-GLP-1) [SEQ ID NO: 195]	significantly reduced the blood glucose levels at 30 and 60 minutes after oral glucose loading and the AUC	did not influence the blood glucose levels
Gly-Gln-Arg-Phe-Ser-Arg-Gly-Gly-His-Ala-Glu-Gly-Thr-Phe-Thr-Ser-Asp-Val-Ser-Ser-Tyr-Leu-Glu-Gly-Gln-Ala-Ala-Lys-Glu-Phe-Ile-Ala-Trp-Leu-Val-Lys-Gly-Arg-Gly-Gly-Lys-Gly-Arg-Cys-Thr-Lys-Ser-Ile-Pro-Pro-Ile-Cys-Phe-Pro (GQRFSRGGHAEGTFTSDVSSYLEGQAAKEFIAWLVKGRGGKGRCTKSIPPICFP; Synthetic construct N-GLP-1-BT1) [SEQ ID NO: 197]	significantly reduced the blood glucose levels at 30 and 60 minutes after oral glucose loading and the AUC	did not influence the blood glucose levels
Gly-Gln-Arg-Phe-Ser-Arg-Gly-Gly-His-Ala-Glu-Gly-Thr-Phe-Thr-Ser-Asp-Val-Ser-Ser-Tyr-Leu-Glu-Gly-Gln-Ala-Ala-Lys-Glu-Phe-Ile-Ala-Trp-Leu-Val-Lys-Gly-Arg-Gly-Gly-Lys-Gly-Cys-Gly-Arg-Ala-Thr-Lys-Ser-Ile-Pro-Pro-Ile-Cys-Phe (GQRFSRGGHAEGTFTSDVSSYLEGQAAKEFIAWLVKGRGGKGCGRATKSIPPICF; Synthetic construct N-GLP-1-BT9) [SEQ ID NO: 201]	significantly reduced the blood glucose levels at 30 and 60 minutes after oral glucose loading and the AUC	did not influence the blood glucose levels
PEG-Gly-Ile-Pro-Ile-Gly-Gly-His-Ala-Glu-Gly-Thr-Phe-Thr-Ser-Asp-Val-Ser-Ser-Tyr-Leu-Glu-Gly-Gln-Ala-Ala-Lys-Glu-Phe-Ile-Ala-Trp-Leu-Val-Lys-Gly-Arg-Gly-Gly-Lys-Gly-Cys-Gly-Arg-Ala-Thr-Lys-Ser-Ile-Pro-Pro-Ile-Cys-Phe ({PEG}-GIPIGGHAEGTFTSDVSSYLEGQAAKEFIAWLVKGRGGKGCGRATKSIPPICF; disulfide 41-52 (inferred); reading uncertain; also: printed as PEG-Gly-Ile-Pro-Ile-Gly-Gly-His-Ala-Glu-Gly-Thr-Phe-Thr-Ser-Asp-Val-Ser-Ser-Tyr-Leu-Glu-Gly-Gln-Ala-Ala-Lys-Glu-Phe-Ile-Ala-Trp-Leu-Val-Lys-Gly-Arg-Gly-Gly-Lys-Gly-Cys-Gly-Arg-Ala-Thr-Lys-Ser-Ile-Pro-Pro-Ile-Cys-Phe) [N-Terminal PEGylated SEQ ID NO: 200]	did not show any significant differences in their hypoglycemic activity compared to the unmodified molecules	–
PEG-Phe-Cys-Thr-Tyr-Ser-Ile-Pro-Pro-Gln-Cys-Tyr-Gly-Gly-Ile-Pro-Ile-Gly-Gly-His-Ala-Glu-Gly-Thr-Phe-Thr-Ser-Asp-Val-Ser-Ser-Tyr-Leu-Glu-Gly-Gln-Ala-Ala-Lys-Glu-Phe-Ile-Ala-Trp-Leu-Val-Lys-Gly-Arg-Gly-Gly-Lys ({PEG}-FCTYSIPPQCYGGIPIGGHAEGTFTSDVSSYLEGQAAKEFIAWLVKGRGGK; disulfide 2-10 (inferred); reading uncertain; also: printed as PEG-Phe-Cys-Thr-Tyr-Ser-Ile-Pro-Pro-Gln-Cys-Tyr-Gly-Gly-Ile-Pro-Ile-Gly-Gly-His-Ala-Glu-Gly-Thr-Phe-Thr-Ser-Asp-Val-Ser-Ser-Tyr-Leu-Glu-Gly-Gln-Ala-Ala-Lys-Glu-Phe-Ile-Ala-Trp-Leu-Val-Lys-Gly-Arg-Gly-Gly-Lys) [N-Terminal PEGylated SEQ ID NO: 204]	did not show any significant differences in their hypoglycemic activity compared to the unmodified molecules	–
